Consider 40 compounds from patent US7494996B2 (priority 2000, dated 2009).

For one test, the system named is Pyricularia oryzae. Kind of test: whole plant or invertebrate. The class given is in vivo. Particulars: 100 is total disease control, 0 is no disease control; for Rice Blast (RB) protectant fungicide data, percent control: 300 g/ha, greenhouse; for pest or weed control at 300 g/ha: Pyricularia oryzae, topical, 144 h, read-out: Rice Blast (RB) protectant fungicide data, percent control, protectant, 300 g/ha, greenhouse.

For another test, the system named is Sphaerotheca fuliginea. Kind of test: Cucumber Powdery Mildew (CPM) protectant test in the greenhouse. The class given is in vivo. Particulars: 100 is total disease control, 0 is no disease control; for Cucumber Powdery Mildew (CPM) protectant fungicide data, percent control: 300 g/ha; for pest or weed control at 300 g/ha: Podosphaera fuliginea, topical, 168 h, read-out: Cucumber Powdery Mildew (CPM) protectant fungicide data, percent control. The essentials:
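Compounds in acetone-methanol-water (1:1:2) sprayed onto cucumber cv. "Bush Champion" (cotyledons plus one true leaf, 13 days old), dried 4 h. Inoculated 1 day later with 2×10^5 spores/ml; disease control (%) rated after 7 days in greenhouse.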

The structures appear in SMILES notation.

As for `O=C1CNC(c2ccc(F)c(Br)c2)=NN1CC1CC1` [Compound 220], the “Rice Blast (RB) protectant fungicide data, percent control” value (“Rice Blast … percent control” for short) with Pyricularia oryzae turned out to be 100 percent control. In the test with Sphaerotheca fuliginea, the “Cucumber Powdery Mildew (CPM) protectant fungicide data, percent control” value (shortened to “Cucumber Powdery Mildew … percent control”) was found to be 80 percent control.

In the case of `COc1cccc(C2=NN(CC(F)(F)F)C(=O)CN2)c1` [Compound 46], the “Rice Blast … percent control” value in the test on Pyricularia oryzae came out at 80 percent control. In addition, the “Cucumber Powdery Mildew … percent control” value in the test with Sphaerotheca fuliginea is 0 percent control.

As to `C[Si](C)(C)CN1N=C(c2ccc(Cl)cc2)NCC1=O` [Compound 61], in the test with Pyricularia oryzae, the “Rice Blast … percent control” value is 85 percent control. Further, in the test with Sphaerotheca fuliginea, the “Cucumber Powdery Mildew … percent control” value is recorded as 50 percent control.

In the case of `CCCCN1N=C(c2ccc(C3=NN(CCCC)C(=O)CN3)cc2)NCC1=O` [Compound 230], the pest or weed control at 300 g/ha in the test with Pyricularia oryzae turned out to be 75%; with Sphaerotheca fuliginea, 0%.

On to `CCCCN1N=C(c2ccc(-c3ccc(C(=O)OCC)cc3)cc2)NCC1=O` [Compound 206], for which, in the test with Pyricularia oryzae, the “Rice Blast … percent control” value was 85 percent control. Also, the “Cucumber Powdery Mildew … percent control” value in the test on Sphaerotheca fuliginea is on record as 80 percent control.

Regarding `O=C1CNC(c2ccc(Cl)cc2)=NN1Cc1ccc(Cl)s1` [Compound 62], the “Rice Blast … percent control” value in the test on Pyricularia oryzae was 85 percent control. For the same compound, in the test on Sphaerotheca fuliginea, the “Cucumber Powdery Mildew … percent control” value was 0 percent control.

Take `O=C1CNC(c2cccc([N+](=O)[O-])c2)=NN1Cc1ccccc1` [Compound 184]: the “Rice Blast … percent control” value with Pyricularia oryzae is given as 85 percent control. Further, in the test on Sphaerotheca fuliginea, the “Cucumber Powdery Mildew … percent control” value is reported as 75 percent control.

Take `CCCCN1N=C(c2ccc(Cl)c(Cl)c2)NCC1=S` [Compound 17, 1-Butyl-3-(3,4-dichlorophenyl)-4,5-dihydro-1,2,4-triazin-6-thione]: the results for the pest or weed control at 300 g/ha in the test on Pyricularia oryzae and in the test with Sphaerotheca fuliginea were 99% and 80%, respectively.

Turning to `O=C1CNC(c2ccc(F)c(Br)c2)=NN1CC(F)(F)F` [Compound 208], the “Rice Blast … percent control” value in the test with Pyricularia oryzae turned out to be 95 percent control. Moreover, the “Cucumber Powdery Mildew … percent control” value in the test with Sphaerotheca fuliginea was found to be 50 percent control.

Turning to `Cc1cccc(-n2nc(-c3cccc(Cl)c3)ncc2=O)c1` [Compound 278], the “Rice Blast … percent control” value in the test with Pyricularia oryzae is on record as 85 percent control. Moreover, the “Cucumber Powdery Mildew … percent control” value in the test with Sphaerotheca fuliginea is listed as 0 percent control.

Consider `C#CCN1CC(=O)N(CC#C)N=C1c1cccc(Br)c1` [Compound 226], for which the “Rice Blast … percent control” value in the test with Pyricularia oryzae worked out at 50 percent control. In addition, the “Cucumber Powdery Mildew … percent control” value with Sphaerotheca fuliginea was 0 percent control.

Turning to `CCCCN1N=C(c2cc(Cl)cc(Cl)c2)N(C(=O)Oc2ccccc2)CC1=O` [Compound 194], in the test on Pyricularia oryzae, the “Rice Blast … percent control” value amounted to 80 percent control. In the test on Sphaerotheca fuliginea, the “Cucumber Powdery Mildew … percent control” value was 0 percent control.

In the case of `CN1N=C(c2ccc(Oc3ccccc3)cc2)NCC1=O` [Compound 156], the “Rice Blast … percent control” value in the test with Pyricularia oryzae came out at 85 percent control. For the same compound, the “Cucumber Powdery Mildew … percent control” value in the test with Sphaerotheca fuliginea is 0 percent control.

For the compound `O=C1CNC(c2ccco2)=NN1CC(F)(F)F` [Compound 140], in the test with Pyricularia oryzae, the “Rice Blast … percent control” value turned out to be 0 percent control. Further, in the test on Sphaerotheca fuliginea, the “Cucumber Powdery Mildew … percent control” value was 50 percent control.

For `O=C1CNC(c2ccc(F)c(F)c2)=NN1Cc1ccccc1` [Compound 139], in the test with Pyricularia oryzae, the “Rice Blast … percent control” value amounted to 99 percent control. The “Cucumber Powdery Mildew … percent control” value in the test on Sphaerotheca fuliginea was determined as 50 percent control.

With `CCCCN1N=C(c2cccc(OC)c2)NCC1=O` [Compound 114], the “Rice Blast … percent control” value in the test with Pyricularia oryzae is given as 75 percent control. The “Cucumber Powdery Mildew … percent control” value in the test on Sphaerotheca fuliginea came out at 0 percent control.

For the compound `O=c1[nH]c(-c2cc(Cl)cc(Cl)c2)nn(CC(F)(F)F)c1=O` [Compound 21, 1-(2,2,2-Trifluorethyl)-3-(3,5-dichlorophenyl)-1,2,4-triazin-5,6-dione], the “Rice Blast … percent control” value with Pyricularia oryzae worked out at 0 percent control. The “Cucumber Powdery Mildew … percent control” value in the test on Sphaerotheca fuliginea was 50 percent control.

As to `CCCCN1N=C(c2cc3ccccc3s2)NCC1=O` [Compound 162], the “Rice Blast … percent control” value in the test with Pyricularia oryzae worked out at 95 percent control. The “Cucumber Powdery Mildew … percent control” value in the test on Sphaerotheca fuliginea is recorded as 50 percent control.

As for `CCCCN1N=C(c2ccc(Cl)c(Cl)c2)N(Cc2ccccc2)CC1=O` [Compound 182], the “Rice Blast … percent control” value with Pyricularia oryzae is 85 percent control. Besides, the “Cucumber Powdery Mildew … percent control” value in the test on Sphaerotheca fuliginea was 0 percent control.

In the case of `COC(=O)SN1CC(=O)N(CC(F)(F)F)N=C1c1cc(Cl)cc(Cl)c1` [Compound 292], the “Rice Blast … percent control” value with Pyricularia oryzae was found to be 99 percent control. Further, the “Cucumber Powdery Mildew … percent control” value in the test on Sphaerotheca fuliginea was found to be 75 percent control.

With `O=C1CNC(c2cccc(Cl)c2)=NN1c1ccccc1` [Compound 111], in the test on Pyricularia oryzae, the “Rice Blast … percent control” value is 85 percent control. In addition, the “Cucumber Powdery Mildew … percent control” value in the test on Sphaerotheca fuliginea was found to be 90 percent control.

For the compound `CCCCN1N=C(C)NC(c2c(C)cc(C)cc2C)C1=O` (centres unmarked) [Compound 82], the “Rice Blast … percent control” value in the test with Pyricularia oryzae is reported as 0 percent control. Moreover, the “Cucumber Powdery Mildew … percent control” value in the test on Sphaerotheca fuliginea is 25 percent control.

For the compound `CCCCCCCCCCN1N=C(c2ccc(Cl)cc2)NCC1=O` [Compound 57], the “Rice Blast … percent control” value in the test with Pyricularia oryzae is reported as 50 percent control. Also, the “Cucumber Powdery Mildew … percent control” value in the test with Sphaerotheca fuliginea is 0 percent control.

With `COC(=O)N1CC(=O)N(CC(F)(F)F)N=C1c1cc(Cl)cc(Cl)c1` [Compound 71], the “Rice Blast … percent control” value in the test on Pyricularia oryzae was found to be 75 percent control. The “Cucumber Powdery Mildew … percent control” value in the test on Sphaerotheca fuliginea is 50 percent control.

With `C=CCN1N=C(c2cc(Cl)cc(Cl)c2)NCC1=O` [Compound 128], the “Rice Blast … percent control” value in the test with Pyricularia oryzae was 90 percent control. Also, the “Cucumber Powdery Mildew … percent control” value in the test on Sphaerotheca fuliginea turned out to be 0 percent control.

As to `CC(=O)CC1NC(c2ccc(Cl)cc2)=NN(CC(F)(F)F)C1=O` (centres unmarked) [Compound 20, 1-(2,2,2-Trifluorethyl)-3-(4-chlorophenyl)-5-(2-propanone)-4,5-dihydro-1,2,4-triazin-6-one], in the test with Pyricularia oryzae, the “Rice Blast … percent control” value is reported as 50 percent control. The “Cucumber Powdery Mildew … percent control” value in the test with Sphaerotheca fuliginea amounted to 75 percent control.

Consider `O=C1CNC(c2cccc(C(F)(F)F)c2)=NN1CC1CC1` [Compound 86], for which the “Rice Blast … percent control” value with Pyricularia oryzae came to 99 percent control. The “Cucumber Powdery Mildew … percent control” value with Sphaerotheca fuliginea was found to be 80 percent control.

For the compound `CCCCn1nc(-c2ccccc2O)ncc1=O` [Compound 287], the “Rice Blast … percent control” value in the test with Pyricularia oryzae turned out to be 80 percent control. Moreover, in the test on Sphaerotheca fuliginea, the “Cucumber Powdery Mildew … percent control” value was 0 percent control.

`C=CC(=O)N1CC(=O)N(CCCC)N=C1c1cc(Cl)cc(Cl)c1` [Compound 138]: the “Rice Blast … percent control” value in the test on Pyricularia oryzae worked out at 99 percent control. Also, the “Cucumber Powdery Mildew … percent control” value in the test on Sphaerotheca fuliginea was 0 percent control.

Regarding `CCCCn1nc(-c2ccc(F)c(Br)c2)ncc1=O` [Compound 289], the “Rice Blast … percent control” value in the test on Pyricularia oryzae is given as 100 percent control. In the test on Sphaerotheca fuliginea, the “Cucumber Powdery Mildew … percent control” value amounted to 50 percent control.

`CCOc1ccc(-c2ncc(=O)n(-c3ccc(Cl)cc3)n2)cc1` [Compound 274]: the “Rice Blast … percent control” value in the test with Pyricularia oryzae stood at 85 percent control. Besides, the “Cucumber Powdery Mildew … percent control” value in the test with Sphaerotheca fuliginea is reported as 0 percent control.

Take `C=C(C)C1NC(c2ccc(Cl)c(Cl)c2)=NN(CCCC)C1=O` (centres unmarked) [Compound 203]: the “Rice Blast … percent control” value with Pyricularia oryzae was 85 percent control. Further, the “Cucumber Powdery Mildew … percent control” value with Sphaerotheca fuliginea stood at 0 percent control.

In the case of `O=C1CN(CC2CC2)C(c2cccc(F)c2)=NN1CC1CC1` [Compound 222], the “Rice Blast … percent control” value in the test with Pyricularia oryzae stood at 0 percent control. Further, the “Cucumber Powdery Mildew … percent control” value with Sphaerotheca fuliginea is 50 percent control.

With `O=C1CNC(c2cccc(C(F)(F)F)c2)=NN1CC(F)(F)F` [Compound 153], the “Rice Blast … percent control” value in the test with Pyricularia oryzae was found to be 100 percent control. Further, the “Cucumber Powdery Mildew … percent control” value in the test on Sphaerotheca fuliginea was found to be 0 percent control.

For the compound `CSc1ccc(C2=NN(c3cccc(C)c3)C(=O)CN2)cc1` [Compound 187], the “Rice Blast … percent control” value in the test with Pyricularia oryzae came out at 80 percent control. The “Cucumber Powdery Mildew … percent control” value in the test with Sphaerotheca fuliginea was 0 percent control.

Turning to `CCCCCCCCN1N=C(c2ccc(Cl)cc2)NCC1=O` [Compound 56], in the test with Pyricularia oryzae, the “Rice Blast … percent control” value was 80 percent control. Further, the “Cucumber Powdery Mildew … percent control” value with Sphaerotheca fuliginea is 80 percent control.

On to `CCCCN1N=C(c2ccc(Oc3ccccc3)cc2)NCC1=O` [Compound 3, 1-Butyl-3-(4-phenoxyphenyl)-4,5-dihydro-1,2,4-triazin-6-one], for which the figures for the pest or weed control at 300 g/ha with Pyricularia oryzae and with Sphaerotheca fuliginea were 80% and 0%, respectively.

Take `CCCCn1nc(-c2ccc(Cl)cc2)ncc1=O` [Compound 258]: in the test on Pyricularia oryzae, the “Rice Blast … percent control” value is on record as 100 percent control. Also, the “Cucumber Powdery Mildew … percent control” value in the test on Sphaerotheca fuliginea is given as 75 percent control.

Take `CCCCCn1nc(-c2cc(Cl)c(C)c(Cl)c2)ncc1=O` [Compound 257]: in the test on Pyricularia oryzae, the “Rice Blast … percent control” value was 95 percent control. In addition, the “Cucumber Powdery Mildew … percent control” value in the test on Sphaerotheca fuliginea is recorded as 50 percent control.

Consider `COc1c(Br)cc(C2=NN(CC(F)(F)F)C(=O)CN2)cc1Br` [Compound 158], for which the “Rice Blast … percent control” value in the test with Pyricularia oryzae worked out at 85 percent control. Further, in the test on Sphaerotheca fuliginea, the “Cucumber Powdery Mildew … percent control” value was 0 percent control.
